Measured values as given in ChEMBL document CHEMBL1138170, “Novel lactam NK1 antagonists with anti-emetic activity” (Bioorg Med Chem Lett, 2006).
pIC50, pKi: −log10 of the molar value.

How the values were obtained:
Substance-P receptor = Substance-P receptor (Homo sapiens, UniProt P25103); experiment: Displacement of [125I]-labeled substance P from the cloned human NK1 receptor expressed in CHO cells; format: cell-based
Mustela putorius furo = experiment: Inhibition of cis-platin induced emesis in ferrets at 1 mg/kg, iv; format: functional
Gerbil, jird [1] = experiment: Inhibition of GR-73632-induced foot-tapping in iv dosed gerbils after 0 h; format: functional; details: Meriones, read-out: ID50 (the source's name)
Gerbil, jird [2] = experiment: Inhibition of GR-73632-induced foot-tapping in gerbils after 24 h at 3 mg/kg, iv; format: functional; details: Meriones
[3] = target: Voltage-gated inwardly rectifying potassium channel KCNH2 (Homo sapiens, UniProt Q12809); experiment: Displacement of labelled MK-499 from cloned channel hERG expressed in HEK cells; format: cell-based, HEK293
Gerbil, jird [4] = experiment: Inhibition of GR-73632-induced foot-tapping in iv dosed gerbils after 24 h; details: Meriones, read-out: ID50 (the source's name)
Gerbil, jird [5] = experiment: Inhibition of GR-73632-induced foot-tapping in iv dosed gerbils after 24 h; format: functional; details: Meriones, read-out: ID50 (the source's name)
Gerbil, jird [6] = experiment: Inhibition of GR-73632-induced foot-tapping in iv dosed gerbils after 2 h; format: functional; details: Meriones, read-out: ID50 (the source's name)
Gerbil, jird [7] = experiment: Inhibition of GR-73632-induced foot-tapping in po dosed gerbils after 24 h; format: functional; details: Meriones, read-out: ID50 (the source's name)

Voltage-gated inwardly rectifying potassium channel KCNH2, sequence (Q12809 whole entry): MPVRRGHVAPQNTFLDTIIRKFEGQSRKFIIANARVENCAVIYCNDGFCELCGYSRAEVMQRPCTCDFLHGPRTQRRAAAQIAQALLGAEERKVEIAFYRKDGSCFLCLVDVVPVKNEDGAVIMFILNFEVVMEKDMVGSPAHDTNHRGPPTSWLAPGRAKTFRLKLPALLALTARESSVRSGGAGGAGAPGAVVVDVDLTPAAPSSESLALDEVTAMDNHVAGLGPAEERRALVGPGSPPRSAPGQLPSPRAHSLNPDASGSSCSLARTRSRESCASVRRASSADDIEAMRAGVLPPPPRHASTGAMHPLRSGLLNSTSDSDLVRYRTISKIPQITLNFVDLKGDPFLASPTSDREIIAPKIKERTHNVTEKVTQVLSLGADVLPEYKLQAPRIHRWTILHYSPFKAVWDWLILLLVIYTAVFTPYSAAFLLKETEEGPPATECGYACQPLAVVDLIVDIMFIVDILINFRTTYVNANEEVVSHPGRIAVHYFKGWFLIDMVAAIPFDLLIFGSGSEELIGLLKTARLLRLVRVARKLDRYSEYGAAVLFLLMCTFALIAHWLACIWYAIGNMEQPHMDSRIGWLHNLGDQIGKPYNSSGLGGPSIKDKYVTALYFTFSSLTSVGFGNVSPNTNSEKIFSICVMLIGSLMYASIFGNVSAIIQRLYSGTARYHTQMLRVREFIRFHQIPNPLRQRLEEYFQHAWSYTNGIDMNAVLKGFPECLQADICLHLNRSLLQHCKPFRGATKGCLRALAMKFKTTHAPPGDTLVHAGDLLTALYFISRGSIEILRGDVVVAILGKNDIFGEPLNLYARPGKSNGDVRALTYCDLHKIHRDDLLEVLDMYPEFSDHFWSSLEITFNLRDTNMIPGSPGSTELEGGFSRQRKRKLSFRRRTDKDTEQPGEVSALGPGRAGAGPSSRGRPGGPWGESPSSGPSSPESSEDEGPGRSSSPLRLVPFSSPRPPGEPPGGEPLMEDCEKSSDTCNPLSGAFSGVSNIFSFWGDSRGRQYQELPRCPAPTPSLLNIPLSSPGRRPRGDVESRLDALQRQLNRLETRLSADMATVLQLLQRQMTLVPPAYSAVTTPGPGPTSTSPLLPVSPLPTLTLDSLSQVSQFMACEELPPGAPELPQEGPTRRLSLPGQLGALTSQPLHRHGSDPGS
Substance-P receptor, sequence (P25103 whole entry): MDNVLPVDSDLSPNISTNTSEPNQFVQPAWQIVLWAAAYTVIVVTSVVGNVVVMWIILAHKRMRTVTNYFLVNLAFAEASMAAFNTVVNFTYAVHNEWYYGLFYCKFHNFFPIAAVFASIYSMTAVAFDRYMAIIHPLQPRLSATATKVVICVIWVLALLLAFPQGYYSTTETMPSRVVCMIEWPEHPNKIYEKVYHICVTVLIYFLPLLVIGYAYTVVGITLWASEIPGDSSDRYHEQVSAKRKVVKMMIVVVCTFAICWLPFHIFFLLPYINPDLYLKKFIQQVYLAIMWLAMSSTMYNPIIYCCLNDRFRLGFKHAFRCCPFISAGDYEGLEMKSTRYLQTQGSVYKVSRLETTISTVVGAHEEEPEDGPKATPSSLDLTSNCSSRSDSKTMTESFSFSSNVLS

Structure (SMILES)	pIC50 (Substance-P receptor)	inhibition in vivo at 1 mg/kg (Mustela putorius furo) [%]	ED50 (Gerbil, jird [1]) [mg/kg]	inhibition in vivo at 3 mg/kg (Gerbil, jird [2]) [%]	pKi [3]	ED50 (Gerbil, jird [4]) [mg/kg]	ED50 (Gerbil, jird [5]) [mg/kg]	ED50 (Gerbil, jird [6]) [mg/kg]	ED50 (Gerbil, jird [7]) [mg/kg]
O=C1N([C@]2(c3ccccc3)CC[C@@H](N3CCC4(CCOC4)CC3)CC2)CCC1(O)c1cc(C(F)(F)F)cc(C(F)(F)F)c1 (some centres undefined)	9.18			5	6.06				
CN(C)[C@H]1CC[C@](c2ccccc2)(N2CCC(c3cc(C(F)(F)F)cc(C(F)(F)F)c3)C2=O)CC1 (some centres undefined)	8.21				6.01				
O=C1CN([C@H]2CC[C@](c3ccccc3)(N3CCC(c4cc(C(F)(F)F)cc(C(F)(F)F)c4)C3=O)CC2)CCN1c1ccccc1 (some centres undefined)	8.96		0.09		5.70	2.1			
CC(C(=O)N[C@]1(c2ccccc2)CC[C@@H](N2CCN(c3ccccc3)C(=O)C2)CC1)c1cc(C(F)(F)F)cc(C(F)(F)F)c1 (some centres undefined)	9.21		0.13		5.43		1.2		
O=C1CN([C@H]2CC[C@](c3ccccc3)(N3CCCC(c4cc(C(F)(F)F)cc(C(F)(F)F)c4)C3=O)CC2)CCN1c1ccccc1 (some centres undefined)	8.82				5.19				
O=C1C(c2cc(C(F)(F)F)cc(C(F)(F)F)c2)CCCN1[C@]1(c2ccccc2)CC[C@@H](N2CCC3(CCOC3)CC2)CC1 (some centres undefined)	9.10			34	6.10				

The next molecules have a higher pIC50 (Substance-P receptor) than those just listed; values first:

pIC50 (Substance-P receptor)	Structure (SMILES)	inhibition in vivo at 1 mg/kg (Mustela putorius furo) [%]	ED50 (Gerbil, jird [1]) [mg/kg]	inhibition in vivo at 3 mg/kg (Gerbil, jird [2]) [%]	pKi [3]	ED50 (Gerbil, jird [4]) [mg/kg]	ED50 (Gerbil, jird [5]) [mg/kg]	ED50 (Gerbil, jird [6]) [mg/kg]	ED50 (Gerbil, jird [7]) [mg/kg]
9.30	O=C1C(c2cc(C(F)(F)F)cc(C(F)(F)F)c2)CCN1[C@]1(c2ccccc2)CC[C@@H](N2CCC3(CCOC3)CC2)CC1 (some centres undefined)	50	0.35	62	6.49				
9.32	CC1(c2cc(C(F)(F)F)cc(C(F)(F)F)c2)CCN([C@]2(c3ccccc3)CC[C@@H](N3CCN(c4ccccc4Cl)C(=O)C3)CC2)C1=O (some centres undefined)			57					
9.32	COC1(c2cc(C(F)(F)F)cc(C(F)(F)F)c2)CCN([C@]2(c3ccccc3)CC[C@@H](N3CCC4(CCOC4)CC3)CC2)C1=O (some centres undefined)			29					
9.32	CC1(c2cc(C(F)(F)F)cc(C(F)(F)F)c2)CCN([C@]2(c3ccccc3)CC[C@@H](N3CCN(c4ccccc4)C(=O)C3)CC2)C1=O (some centres undefined)	90	0.22				0.6		
9.47	CC(C(=O)N[C@]1(c2ccccc2)CC[C@@H](N2CCC3(CCOC3)CC2)CC1)c1cc(C(F)(F)F)cc(C(F)(F)F)c1 (some centres undefined)		1.44				1.62	1.1	2.2
9.48	CC1(c2cc(C(F)(F)F)cc(C(F)(F)F)c2)CCN([C@]2(c3ccccc3)CC[C@@H](N3CCC4(CCOC4)CC3)CC2)C1=O (some centres undefined)				6.44		0.24		
